In paper PMC11645267, “Novel pharmacologic inhibition of lysine-specific demethylase 1 as a potential therapeutic for glioblastoma” (Cancer Gene Therapy, 2024):

System: glioma stem cells (GSCs)
Assay: Cell growth / viability in glioma stem cells
Type: cell-based
Text: Inhibition of LSD1 can effectively suppress stem-like tumor-propagating cells in human glioma.
Supplementary materials and methods
RNA-seq data of malignant glioma (n=157) and normal tissue (n=5) were obtained from TCGA (http://xena.ucsc.edu/).
Cell lines and culture conditions
Glioblastoma cell line, LN229, was obtained from the American Type Culture Collection (ATCC, Manassas, VA, USA). Normal fibroblast cell lines TIG3 and WI-38, TM31 (low grade glioma) were obtained from the RIKEN Bioresource Research Center (Tsukuba, Japan). Onda10 and KINGS1 (low grade glioma) cell lines were obtained from the Japanese Collection of Research Bioresources (Ibaraki, Japan). F3 is utilized as a neural stem cell line{Kim, 2004 #1412}{Natsume, 2013 #1009}. All cells were maintained in DMEM medium (Wako, Osaka, Japan) containing 5% fetal bovine serum (FBS, Thermo Fisher Scientific, Waltham, MA, USA) and 1% penicillin-streptomycin (Wako). Glioma stem cell lines (GSC1228, GSC316, and GSC222) were established previously{Natsume, 2013 #1009}{Katsushima, 2016 #1156}. […]
For the cell proliferation assay, cells at a density of 1 × 10^5 cells per well were seeded before treatment with LSD1 inhibitors. Cell proliferation was measured after 4 days using a Cell Counting Kit 8 (Dojindo, Kumamoto, Japan) according to the manufacturer ’s […]

NC1CCC(NC2CC2c2cc(F)cc(F)c2OCc2ccccc2)CC1 (centres unmarked) [S2172]
viability at 5 µM (GSC cells, 5 μM, read-out: viable cells): < 80% | IC50 (mean over glioma stem cells, read-out: mean half-maximal inhibitory concentration (IC50), cell growth in GSCs): 13.8 µM
